Results as given in patent US8742068B2, “Treatment and prevention of inflammatory diseases and autoimmune diseases” (Universiteit Utrecht Holding B.V., priority 2007, dated 2014).
Entries after “also recorded” stand apart in the source; their conditions may differ.

Experiments:
[1] = tested on: proteoglycan induced arthritis; assay: Proteoglycan induced arthritis (PGIA), intranasal pre-treatment; format: in vivo, Balb/c mice; conditions: control pOva
Text: The proteoglycan induced arthritis model (PGIA) is a murine model of rheumatoid arthritis and is described to be a T-cell dependent and antibody mediated model. In the model arthritis is induced by two times injection of human proteoglycan (hPG) in a synthetic adjuvant dimethyldioctadecylammonium (DDA), see Hanyecz A. et al., Achievement of a synergistic adjuvant effect on arthritis induction by activation of innate immunity and forcing the immune response toward the Th1 phenotype. Arthritis Rheum. 2004 50(5):1665-76.
Because arthritis is induced by immunization with a synthetic adjuvant, instead of complete Freund's adjuvant (CFA), the role of interfering immune responses, induced by microbial Hsp's present in CFA, can be excluded. Due to cross reactive responses, between the human and the mouse (self) PG, a chronic and relapsing arthritis develops. After disease development, arthritis severity is scored by clinical assessment of thickness, redness and deformation of the joints on a scale of 1-4 per paw.
Ten female Balb/c mice, retired breeders obtained from Charles River, were randomly divided in two groups. To evaluate the effect of intra nasal treatment with Mycobacterial HSP70 (SEQ ID NO: 55) on PGIA 30 μg Hsp70 in 10 μl PBS was administered on day −7, −5 and −3 before disease induction. PGIA was induced by two times i.p. injection with 400 μg hPG and 2 mg DDA in 200 μl PBS. Subsequently developed arthritis scores were assessed by clinical evaluation as described in Example 7.
Fifteen female Balb/c mice, retired breeders obtained from Charles River, were randomly divided in three groups (five mice per group). To evaluate the effect of intranasal treatment with Hsp70-derived peptides “B1” (SEQ ID NO: 1) and a mixture of C1 (SEQ ID NO: 3) and mC1a (SEQ ID NO: 4) (designated herein as “C1mix”) on PGIA 100 μg peptide in 10 μl PBS was administered on day −7, −5 and −3 before disease induction. Ovalbumin peptide 323-339 (pOva) was used as a control peptide. PGIA was induced by two times i.p. injection with 400 μg hPG and 2 mg DDA in 200 μl PBS. Subsequently developed arthritis scores were assessed by clinical evaluation.
Twelve female Balb/c mice, retired breeders obtained from Charles River, were randomly divided in two groups (six mice per group). To evaluate the effect of intra nasal treatment with Hsp70 derived mC1 a on PGIA 100 μg peptide in 10 μl PBS was administered on day −14, −11, −7 and −4 before disease induction. Ovalbumin peptide (pOva) was used as a control peptide. PGIA was induced by two times i.p. injection with 400 μg hPG and 2 mg DDA in 200 μl PBS. Subsequently developed arthritis scores were assessed by clinical evaluation.
Eighteen female Balb/c mice, retired breeders obtained from Charles River, were randomly divided in three groups (six mice per group). To evaluate the effect of intranasal (i.n.) treatment with Hsp70 derived peptides C1 and its mouse homologue mC1a on PGIA 100 μg peptide in 10 μl PBS was administered on day −7, −5 and −3 before disease induction (see FIG. 28). Ovalbumin peptide (pOva) was used as a control peptide. PGIA was induced by two times i.p. injection with 300 μg hPG and 2 mg DDA in 200 μl PBS. Subsequently developed arthritis scores were assessed by clinical evaluation. • Group A: (pOva): Treated with 100 μg pOva in 10 μl PBS intranasally • Group B (C1): Treated with 100 μg C1 in 10 μl PBS intranasally • Group C (mC1a): Treated with 100 μg mC1a in 10 μl PBS intranasally

[2] = tested on: primed spleen and draining lymph node cells; assay: Peptide pool immunization, in vitro re-stimulation with individual peptides (T-cell proliferation, cytokine production, cross reactivity); format: cell-based, Balb/c mice
Text: To define the epitopes more precisely, we divided the 13 peptides, based on the degree of sequence identity between bacterial and the homologous mouse Hsp70s, in three pools (pool A: non-conserved peptides, pool B: conserved peptides comprising at least about 80% amino acid identity to the mouse homologue, and pool C: highly conserved peptides comprising >86% amino acid identity to the mouse homologue, see below) and immunized 10-12 weeks old Balb/c mice twice with a 2 week interval (intraperitoneally and subcutaneously) with the peptide pools. 10 days after the second immunization primed spleen and draining lymph node cells were re-stimulated in vitro with all the 13 individual peptides after which we measured T-cell proliferation (tritium incorporation), IFNγ, IL10, IL4 and IL5 production (cytokine production).
Cross reactivity was determined with the corresponding mouse homologue peptides.

[3] = tested on: PBMC isolated from the blood of healthy donors; assay: Peptide-specific proliferation of human PBMC; format: cell-based; conditions: peptides at 20 μg/ml for 96 hours; compared to A5 control peptide
Text: Peptide specific responses were studied in mononuclear cells obtained from the blood of healthy controls or the synovial fluid of a JIA and a RA patient. The patients were visiting the outpatient clinic of the departments of Rheumatology & Clinical Immunology and Pediatrics of the University Medical Center Utrecht (Utrecht, The Netherlands). The RA patient fulfilled diagnostic criteria of the American College of Rheumatology criteria for RA […]. Cells were isolated by ficoll (Pharmacia, Uppsala, Sweden) density gradient centrifugation of heparinized blood or synovial fluid and cultured in RPMI 1640 supplemented with 2 mmol/L glutamine, 100 U/ml penicillin and streptomycin (Gibco BRL, Gaithersburg, Md. USA) and 10% AB-positive heat-inactivated human serum (Sanquin Blood Bank, Utrecht, the Netherlands) in 96 wells round bottom plates (Nunc, Roskilde, Denmark) at 2*10^5 cells in 200 μl per well. Cultures were in triplicate stimulated with peptides at 20 μg/ml for 96 hours at 37° C. in 5% CO2 with 100% relative humidity. For determination of peptide-specific proliferation of PBMC, during the last 16 hours 1 μC1 (37 kBq) [^3H]-thymidine was added to each well and incorporation was measured. Data are expressed as stimulation index calculated as mean CPM of cells cultured with peptide divided by mean CPM of cells cultured without peptide.

[4] = tested on: synovial fluid mononuclear cells (SFMC); assay: Peptide-specific response of SFMC (intracellular staining and FACS); format: cell-based, human; conditions: eight days culture with peptide, 6 hour restimulation
Procedure: Peptide-specific response of SFMC was measured by intracellular staining and FACS analysis. Therefore, cells were cultured in the presence of the peptide as described for PBMC. After 96 hours 100 μl of the medium was replaced by fresh culture medium and 40 IU/ml IL-2 was added. At day eight, cells were spun down, medium was aspirated and 200 μl new medium with fresh irradiated APC of the same donor was added (7.5*10^5 irradiated at 3500 rad) During 6 hours cells were cultured with or without the peptides and addition of the costimulatory mAbs CD28 and CD49 (0.5 μg/ml each) at 37° C. In the last 4 hours Golgistop (BD Biosciences) was added. Harvested cells were washed and surface stained as described previously […] with anti-CD3-Peridinin-chlorophyll-protein Complex (PerCP), anti-CD4-allophycocyanin (APC) and anti-CD69-fluorescein isothiocyanate (FITC) and subsequently fixed in Cytofix/cytoperm solution (BD Biosciences) followed by intracellular staining with phycoerythrin (PE) conjugated mAbs against either IL-10, IFNγ or TNFα. All antibodies were obtained from Becton Dickinson. Data are expressed as % positive cells of the CD3^+CD4^+ population.

[5] = tested on: adjuvant arthritis; conditions: in vivo; cited from earlier work
[6] = tested on: arthritis; conditions: cited from earlier work
[7] = Example 11: 100 μg intranasally on day −7, −5 and −3

## DEVVAVGAALQAGVL (listed as Mycobacterium tuberculosis) [B1, pool B (conserved)]
[1]; Example 9: 100 μg intranasally on day −7, −5 and −3
  disease severity (arthritis score): reduction of disease severity
[2]
  Cross-reactivity of bacterially primed T-cells with mouse homologue peptide: induced cross reactive T cell responses and yes

## KPFQSVIADTGISVS (listed as Mycobacterium tuberculosis) [A1, pool A (not conserved)]
[2]
  Cross-reactivity of bacterially primed T-cells with mouse homologue peptide: no

## VLRIINEPTAAAIAY (listed as Mus musculus) [mC1b, mouse hsp70 (hspa1a/hspa8) peptide, mouse homologue of C1]
[3]
  peptide-specific proliferation (stimulation index, [3H] thymidine incorporation): increased proliferation of PBMC; also recorded: significantly increased the proliferation
[4]
  production of IL-10, IFNγ and TNFα in the CD3+CD4+ population: increased the production of IL-10, IFNγ and TNFα
  surface expression of CD69 in the CD3+CD4+ population: increased

## VLRIVNEPTAAALAY (listed as Mycobacterium tuberculosis) [C1]
[1]; [7]
  disease activity (arthritis score): significant reduction of disease activity
[2]
  Cross-reactivity of bacterially primed T-cells with mouse homologue peptide: induced cross reactive T cell responses and yes
[4]
  production of IL-10, IFNγ and TNFα in the CD3+CD4+ population: increased CD69 and cytokine expression
  surface expression of CD69 in the CD3+CD4+ population: increased CD69 and cytokine expression

## VLRVINEPTAAALAY (listed as Mus musculus) [mC1a, mouse Grp75 (hspa9a) peptide 216-230, mouse homologue of C1]
[1]; Example 10: 100 μg intranasally on day −14, −11, −7 and −4
  disease activity (arthritis score): suppressed disease activity
[1]; [7]
  disease activity (arthritis score): significant reduction of disease activity

## amino acids 84-103: another peptide of Mycobacterial HSP70, amino acids 84-103 (Tanaka et al. 1999) (KKYTAPEISARILMKLKRDA; UniProt P9WMJ9 84-103, looked up, fragment)
[5]
  development of adjuvant arthritis: does not suppress adjuvant arthritis development

## peptide 111-125: synthetic 15-mer peptide of mycobacterial HSP70, amino acids 111-125 (Wendling et al. 2000) (ITDAVITTPAYFNDA; UniProt P9WMJ9 111-125, looked up, fragment)
[6]; nasal administration
  arthritis: significant reduction of arthritis
[6]; parenteral pre-immunization
  arthritis development: did not protect against arthritis development

## peptide 234-252: peptide 234-252 of Mycobacterial HSP70 (Tanaka et al. 1999) (LREAAEKAKIELSSSQSTS; UniProt P9WMJ9 234-252, looked up, fragment)
[5]
  IL-10 production: induces IL-10 production
  development of adjuvant arthritis: suppresses the development of adjuvant arthritis
